Data on five molecules can be found in patent US20040043903A1, “2-Aryl-5-trifluoromethylpyridines” (priority 2000, published 2004).

Assay in all cases: post-emergence herbicidal action, greenhouse experiments
For one test, the system named is ECHCG. Type of test: in vivo, barnyardgrass. The text has this: (§1) The culture containers used were plastic pots with loamy sand with approximately 3.0% humus as substrate. The seeds of the test plants were sown separately for each species.
(§2) For the purposes of the post-emergence treatment, the test plants were first grown to a height of 3 to 15 cm, depending on the growth habit, and only then treated with the active ingredients which were suspended or emulsified in water. To this end, the test plants were either sown directly and grown on in the same containers, or else they were first grown separately as seedlings and then transplanted into the experimental containers a few days prior to treatment. The application rate for the post-emergence treatment was 31.3, 15.6, 7.8 and/or 3.9 g of a.s./ha.
(§3) The plants were kept at temperatures of 10-25° C. or 20-35° C., depending on the species. The experimental period extended over 2 to 4 weeks. During this time, the plants were tended, and their response to the individual regimes were evaluated.
(§4) For the evaluation, a scale of 0 to 100 was used. 100 means no emergence of the plants, or complete destruction of at least the aerial parts, and 0 means no damage or normal course of growth.
(§5) The plants used in the greenhouse experiments consisted of the following species: […]

Another test deals with SETFA. Type of test: in vivo, giant foxtail. As to conditions: for Harmful plant/action (post-emergence herbicidal action): scale 0 to 100.
Text: as §1
(§6) For the purposes of the post-emergence treatment, the test plants were first grown to a height of 3 to 15 cm, depending on the growth habit, and only then treated with the active ingredients which were suspended or emulsified in water. To this end, the test plants were either sown directly and grown on in the same containers, or else they were first grown separately as seedlings and then transplanted into the experimental containers a few days prior to treatment. […]
as §3, §4, §5

Another test deals with CHEAL. Type of test: in vivo, lambsquarters. As to conditions: for Harmful plant/action (post-emergence herbicidal action): scale 0 to 100.
Text: as §1, §2, §3, §4, §5

Another test has as its system BIDPI. Type of test: in vivo, hairy beggarticks. As to conditions: for Harmful plant/action (post-emergence herbicidal action): scale 0 to 100.
Text: as §1, §6, §3, §4, §5

The subject of the next test is BRAPL. Format: in vivo, alexandergrass.
Text: as §1, §2, §3, §4, §5

[1] abbreviates: 31.3 and 15.6 g of a.s./ha, compared with Comparative Example VA.
[2] abbreviates: application rate 15.6 g/ha a.s.
Where [3] appears, read: application rate 31.3 g/ha a.s.
[4] abbreviates: 7.8 and 3.9 g of a.s./ha, compared with Comparative Example VB.
[5] abbreviates: 7.8 and 3.9 g of a.s./ha, compared with Comparative Example VC.

For the molecule `COc1cc(-c2ncc(C(F)(F)F)c(C)c2Cl)c(F)cc1Cl` [IAa.3, 2-(2-fluoro-4-chloro-5-methoxyphenyl-1-yl)-3-chloro-4-methyl-5-trifluoromethylpyridine], the “action against the harmful plant compared with Comparative Example” value (“action … compared with Comparative Example” below) with ECHCG (setting [1]), in the test on SETFA (setting [1]), in the test with CHEAL (setting [1]) and in the test on BIDPI (setting [1]) was “considerably better action” each time. The “Harmful plant/action (post-emergence herbicidal action)” value (from here on “Harmful plant/action”) is listed as 90 in the test on ECHCG (application rate 15.6 g/ha a.s., scale 0 to 100); 100 in the test with ECHCG (application rate 31.3 g/ha a.s., scale 0 to 100 (100 = complete destruction, 0 = no damage)); 95 with SETFA (setting [2]); 100 in the test with SETFA (setting [3]); 100 in the test with CHEAL (setting [2]); 100 in the test on CHEAL (setting [3]). Also, the “Harmful plant/action” value in the test with BIDPI (setting [2]) and with BIDPI (setting [3]) was 60 in each case.
As to `C#CCOc1cc(-c2ncc(C(F)(F)F)c(C)c2Cl)c(F)cc1Cl` [IAa.10, 2-(2-Fluoro-4-chloro-5-propargyloxyphenyl)-3-chloro-4-methyl-5-trifluoromethylpyridine], the “action … compared with Comparative Example” value in the test with ECHCG (setting [4]), with SETFA (setting [4]) and in the test with BIDPI (setting [4]) was “considerably better action” each time. Further, the “Harmful plant/action” value was 70 with ECHCG (application rate 3.9 g/ha a.s., scale 0 to 100); 85 with ECHCG (application rate 7.8 g/ha a.s., scale 0 to 100); 98 in the test on SETFA (application rate 3.9 g/ha a.s.); 98 in the test with SETFA (application rate 7.8 g/ha a.s.); 100 with CHEAL (application rate 3.9 g/ha a.s.); 100 in the test with CHEAL (application rate 7.8 g/ha a.s.). Also, the “Harmful plant/action” value with BIDPI (application rate 3.9 g/ha a.s.) and in the test on BIDPI (application rate 7.8 g/ha a.s.) was 100 in each case.
`CCc1nc2c(Cl)cc(F)c(-c3ncc(C(F)(F)F)c(C)c3Cl)c2o1` [ICe.3, 4-Chloro-7-[3-chloro-4-methyl-5-(trifluoromethyl)-2-pyridinyl]-2-ethyl-6-fluoro-1,3-benzoxazole]: the “action … compared with Comparative Example” value with SETFA (setting [5]), in the test with BRAPL (setting [5]) and in the test with BIDPI (setting [5]) was “considerably better action” in each case. Moreover, the “post-emergence herbicidal action, SETFA” value in the test with SETFA (application rate 3.9 g/ha a.s.) and in the test on SETFA (application rate 7.8 g/ha a.s.) was 100 each time. Besides, the “post-emergence herbicidal action, BRAPL” value amounted to 80 in the test on BRAPL (application rate 3.9 g/ha a.s.) and 90 in the test on BRAPL (application rate 7.8 g/ha a.s.). The “post-emergence herbicidal action, BIDPI” value in the test on BIDPI (application rate 3.9 g/ha a.s.) and in the test with BIDPI (application rate 7.8 g/ha a.s.) was 100 in each case.
Take `CCc1nc2c(Cl)cc(F)c(-c3ncc(C(F)(F)F)cc3Cl)c2o1` [VC, reference compound]: the “post-emergence herbicidal action, SETFA” value with SETFA (application rate 3.9 g/ha a.s.) was 90; in the test with SETFA (application rate 7.8 g/ha a.s.) it was 95. Further, the “post-emergence herbicidal action, BRAPL” value in the test with BRAPL (application rate 3.9 g/ha a.s.) turned out to be 40; in the test on BRAPL (application rate 7.8 g/ha a.s.) it was 55. In addition, the “post-emergence herbicidal action, BIDPI” value is 50 in the test on BIDPI (application rate 3.9 g/ha a.s.) and 55 in the test on BIDPI (application rate 7.8 g/ha a.s.).
In the case of `C#CCN1C(=O)COc2cc(F)c(-c3ncc(C(F)(F)F)cc3Cl)cc21` [VD, reference compound], the “post-emergence herbicidal action, SETFA” value is 60 with SETFA (application rate 1.9 g/ha a.s.) and 90 in the test with SETFA (application rate 3.9 g/ha a.s.). Also, the “post-emergence herbicidal action, BIDPI” value turned out to be 50 in the test with BIDPI (application rate 1.9 g/ha a.s.) and 55 in the test with BIDPI (application rate 3.9 g/ha a.s.).
